Tests used:
[1] = biological target: T1, Ceramide glucosyltransferase (Homo sapiens, UniProt Q16739)
T1 sequence (Q16739 whole entry): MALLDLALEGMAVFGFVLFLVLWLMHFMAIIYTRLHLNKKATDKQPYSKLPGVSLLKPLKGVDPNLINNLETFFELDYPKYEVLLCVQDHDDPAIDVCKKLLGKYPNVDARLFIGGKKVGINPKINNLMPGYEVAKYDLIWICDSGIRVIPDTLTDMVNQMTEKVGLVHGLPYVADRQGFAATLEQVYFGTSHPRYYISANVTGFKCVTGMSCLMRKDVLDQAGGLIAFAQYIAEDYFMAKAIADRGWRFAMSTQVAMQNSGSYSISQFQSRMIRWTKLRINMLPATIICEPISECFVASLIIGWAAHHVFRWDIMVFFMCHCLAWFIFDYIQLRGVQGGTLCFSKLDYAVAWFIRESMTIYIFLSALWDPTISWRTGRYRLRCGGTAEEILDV

[2] = biological target: T2, Lysosomal acid glucosylceramidase (Homo sapiens, UniProt P04062)
T2 sequence (P04062 whole entry): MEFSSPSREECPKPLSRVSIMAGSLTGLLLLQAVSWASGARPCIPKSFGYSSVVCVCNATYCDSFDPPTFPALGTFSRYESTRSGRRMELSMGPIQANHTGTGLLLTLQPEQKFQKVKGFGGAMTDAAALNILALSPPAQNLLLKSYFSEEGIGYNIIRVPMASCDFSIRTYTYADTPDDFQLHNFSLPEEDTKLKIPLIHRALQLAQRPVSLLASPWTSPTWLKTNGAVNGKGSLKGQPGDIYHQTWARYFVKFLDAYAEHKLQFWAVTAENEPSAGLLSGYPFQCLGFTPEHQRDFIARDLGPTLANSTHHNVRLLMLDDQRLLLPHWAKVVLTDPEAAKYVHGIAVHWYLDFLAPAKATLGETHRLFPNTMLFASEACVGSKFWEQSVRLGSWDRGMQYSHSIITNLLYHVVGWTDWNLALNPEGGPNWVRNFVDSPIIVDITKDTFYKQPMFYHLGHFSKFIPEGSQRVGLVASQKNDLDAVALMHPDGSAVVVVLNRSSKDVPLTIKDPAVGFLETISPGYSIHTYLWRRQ

[3] = biological target: T3, Beta-glucosidase (Homo sapiens, UniProt Q9HCG7)
T3 sequence (Q9HCG7 whole entry): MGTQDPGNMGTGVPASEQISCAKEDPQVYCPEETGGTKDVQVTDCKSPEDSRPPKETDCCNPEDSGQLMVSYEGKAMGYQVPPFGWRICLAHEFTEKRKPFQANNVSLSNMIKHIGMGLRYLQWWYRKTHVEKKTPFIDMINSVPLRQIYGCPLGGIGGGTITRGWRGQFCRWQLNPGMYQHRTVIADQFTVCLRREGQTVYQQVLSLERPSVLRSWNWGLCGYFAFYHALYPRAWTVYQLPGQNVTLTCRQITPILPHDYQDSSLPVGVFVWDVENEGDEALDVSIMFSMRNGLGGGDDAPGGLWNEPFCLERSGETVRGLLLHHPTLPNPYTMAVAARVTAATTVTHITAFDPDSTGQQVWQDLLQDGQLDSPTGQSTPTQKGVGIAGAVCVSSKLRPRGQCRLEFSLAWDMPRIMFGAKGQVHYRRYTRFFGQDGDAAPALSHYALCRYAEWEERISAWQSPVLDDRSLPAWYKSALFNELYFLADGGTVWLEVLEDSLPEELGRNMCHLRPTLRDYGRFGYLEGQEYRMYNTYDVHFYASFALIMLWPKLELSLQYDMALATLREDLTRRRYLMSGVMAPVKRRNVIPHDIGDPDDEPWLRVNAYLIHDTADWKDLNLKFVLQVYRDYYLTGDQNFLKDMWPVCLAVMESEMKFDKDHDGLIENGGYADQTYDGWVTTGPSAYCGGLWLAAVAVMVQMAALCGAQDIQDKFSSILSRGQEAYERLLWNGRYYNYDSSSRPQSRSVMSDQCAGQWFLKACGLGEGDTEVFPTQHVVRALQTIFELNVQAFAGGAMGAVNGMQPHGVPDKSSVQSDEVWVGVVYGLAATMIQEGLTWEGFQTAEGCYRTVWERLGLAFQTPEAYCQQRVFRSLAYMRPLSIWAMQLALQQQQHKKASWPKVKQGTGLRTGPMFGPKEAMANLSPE

[4] = biological target: Maltase-glucoamylase (Homo sapiens, UniProt O43451); assay: Inhibition of intestinal maltase (unknown origin)
[5] = biological target: Lactase/phlorizin hydrolase (Homo sapiens, UniProt P09848); assay: Inhibition of intestinal lactase (unknown origin)
[6] = biological target: Sucrase-isomaltase, intestinal (Homo sapiens, UniProt P14410); assay: Inhibition of intestinal sucrase (unknown origin)

Sequence of Maltase-glucoamylase (O43451 whole entry): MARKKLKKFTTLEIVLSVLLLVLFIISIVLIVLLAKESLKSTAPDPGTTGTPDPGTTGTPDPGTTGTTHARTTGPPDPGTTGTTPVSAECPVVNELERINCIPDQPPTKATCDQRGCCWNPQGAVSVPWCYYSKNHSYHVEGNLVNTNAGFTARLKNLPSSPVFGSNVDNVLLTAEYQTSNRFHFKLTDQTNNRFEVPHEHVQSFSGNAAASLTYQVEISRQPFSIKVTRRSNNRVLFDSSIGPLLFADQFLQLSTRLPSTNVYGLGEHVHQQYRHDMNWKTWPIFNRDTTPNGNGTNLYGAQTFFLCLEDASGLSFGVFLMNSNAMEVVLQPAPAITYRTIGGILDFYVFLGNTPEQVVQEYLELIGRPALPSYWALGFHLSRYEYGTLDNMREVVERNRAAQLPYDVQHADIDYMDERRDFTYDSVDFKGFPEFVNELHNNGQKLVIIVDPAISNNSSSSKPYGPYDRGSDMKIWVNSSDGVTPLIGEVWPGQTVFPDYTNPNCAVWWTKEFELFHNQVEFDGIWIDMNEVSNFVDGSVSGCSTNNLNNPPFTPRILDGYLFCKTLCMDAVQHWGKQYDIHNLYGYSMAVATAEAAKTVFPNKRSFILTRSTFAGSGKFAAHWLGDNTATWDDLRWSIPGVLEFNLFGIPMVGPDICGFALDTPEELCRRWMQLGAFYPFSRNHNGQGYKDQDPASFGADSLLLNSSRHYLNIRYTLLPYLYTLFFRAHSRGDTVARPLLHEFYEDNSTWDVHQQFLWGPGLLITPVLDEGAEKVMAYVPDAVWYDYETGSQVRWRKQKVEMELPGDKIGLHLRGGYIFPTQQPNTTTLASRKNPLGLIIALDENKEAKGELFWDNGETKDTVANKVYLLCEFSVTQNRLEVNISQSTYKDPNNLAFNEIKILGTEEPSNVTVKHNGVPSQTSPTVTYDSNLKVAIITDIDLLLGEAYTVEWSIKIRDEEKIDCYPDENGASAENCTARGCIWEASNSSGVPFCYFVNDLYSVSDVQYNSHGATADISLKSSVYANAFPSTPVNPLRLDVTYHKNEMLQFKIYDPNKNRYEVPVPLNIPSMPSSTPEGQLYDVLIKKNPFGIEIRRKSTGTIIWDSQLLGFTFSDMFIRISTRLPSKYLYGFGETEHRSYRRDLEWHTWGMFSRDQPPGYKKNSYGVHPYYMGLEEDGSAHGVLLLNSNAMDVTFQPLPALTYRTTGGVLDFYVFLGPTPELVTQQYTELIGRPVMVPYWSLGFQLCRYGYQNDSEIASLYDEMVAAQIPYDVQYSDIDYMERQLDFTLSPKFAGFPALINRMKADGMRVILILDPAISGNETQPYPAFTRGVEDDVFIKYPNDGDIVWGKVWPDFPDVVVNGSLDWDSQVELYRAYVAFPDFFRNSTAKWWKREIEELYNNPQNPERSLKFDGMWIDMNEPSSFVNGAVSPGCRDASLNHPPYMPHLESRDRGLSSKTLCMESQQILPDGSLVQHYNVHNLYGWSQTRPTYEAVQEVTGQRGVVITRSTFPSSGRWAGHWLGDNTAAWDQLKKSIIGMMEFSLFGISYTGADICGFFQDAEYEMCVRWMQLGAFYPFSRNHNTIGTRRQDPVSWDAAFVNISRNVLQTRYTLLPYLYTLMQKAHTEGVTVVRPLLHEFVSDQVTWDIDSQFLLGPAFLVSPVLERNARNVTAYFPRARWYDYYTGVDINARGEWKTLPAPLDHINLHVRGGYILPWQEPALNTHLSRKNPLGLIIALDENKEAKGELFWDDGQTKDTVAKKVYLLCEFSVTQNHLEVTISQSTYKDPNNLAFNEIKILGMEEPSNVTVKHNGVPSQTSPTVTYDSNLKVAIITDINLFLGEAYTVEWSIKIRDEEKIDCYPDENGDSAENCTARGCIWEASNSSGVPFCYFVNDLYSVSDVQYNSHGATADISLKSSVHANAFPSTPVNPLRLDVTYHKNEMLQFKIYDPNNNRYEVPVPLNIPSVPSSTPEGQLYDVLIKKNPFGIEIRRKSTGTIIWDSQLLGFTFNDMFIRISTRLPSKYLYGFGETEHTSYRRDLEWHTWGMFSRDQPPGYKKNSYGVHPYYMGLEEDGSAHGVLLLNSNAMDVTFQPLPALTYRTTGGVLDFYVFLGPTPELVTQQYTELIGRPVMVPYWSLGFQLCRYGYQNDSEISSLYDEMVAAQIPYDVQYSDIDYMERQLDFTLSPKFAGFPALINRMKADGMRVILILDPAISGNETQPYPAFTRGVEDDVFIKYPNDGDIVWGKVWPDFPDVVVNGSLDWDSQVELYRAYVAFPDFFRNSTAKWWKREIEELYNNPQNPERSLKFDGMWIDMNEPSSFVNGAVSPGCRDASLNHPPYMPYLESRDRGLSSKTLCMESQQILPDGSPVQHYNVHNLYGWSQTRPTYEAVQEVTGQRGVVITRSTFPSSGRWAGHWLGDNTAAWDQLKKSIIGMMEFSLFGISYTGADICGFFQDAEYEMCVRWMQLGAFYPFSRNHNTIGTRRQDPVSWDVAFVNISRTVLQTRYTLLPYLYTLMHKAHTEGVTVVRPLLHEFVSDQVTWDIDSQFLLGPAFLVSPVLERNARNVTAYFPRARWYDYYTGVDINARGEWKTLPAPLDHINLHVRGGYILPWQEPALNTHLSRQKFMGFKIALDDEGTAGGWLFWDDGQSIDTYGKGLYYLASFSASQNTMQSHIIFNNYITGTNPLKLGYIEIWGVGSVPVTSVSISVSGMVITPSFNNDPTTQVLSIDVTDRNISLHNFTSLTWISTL
Sequence of Lactase/phlorizin hydrolase (P09848 869-1927 limits assumed): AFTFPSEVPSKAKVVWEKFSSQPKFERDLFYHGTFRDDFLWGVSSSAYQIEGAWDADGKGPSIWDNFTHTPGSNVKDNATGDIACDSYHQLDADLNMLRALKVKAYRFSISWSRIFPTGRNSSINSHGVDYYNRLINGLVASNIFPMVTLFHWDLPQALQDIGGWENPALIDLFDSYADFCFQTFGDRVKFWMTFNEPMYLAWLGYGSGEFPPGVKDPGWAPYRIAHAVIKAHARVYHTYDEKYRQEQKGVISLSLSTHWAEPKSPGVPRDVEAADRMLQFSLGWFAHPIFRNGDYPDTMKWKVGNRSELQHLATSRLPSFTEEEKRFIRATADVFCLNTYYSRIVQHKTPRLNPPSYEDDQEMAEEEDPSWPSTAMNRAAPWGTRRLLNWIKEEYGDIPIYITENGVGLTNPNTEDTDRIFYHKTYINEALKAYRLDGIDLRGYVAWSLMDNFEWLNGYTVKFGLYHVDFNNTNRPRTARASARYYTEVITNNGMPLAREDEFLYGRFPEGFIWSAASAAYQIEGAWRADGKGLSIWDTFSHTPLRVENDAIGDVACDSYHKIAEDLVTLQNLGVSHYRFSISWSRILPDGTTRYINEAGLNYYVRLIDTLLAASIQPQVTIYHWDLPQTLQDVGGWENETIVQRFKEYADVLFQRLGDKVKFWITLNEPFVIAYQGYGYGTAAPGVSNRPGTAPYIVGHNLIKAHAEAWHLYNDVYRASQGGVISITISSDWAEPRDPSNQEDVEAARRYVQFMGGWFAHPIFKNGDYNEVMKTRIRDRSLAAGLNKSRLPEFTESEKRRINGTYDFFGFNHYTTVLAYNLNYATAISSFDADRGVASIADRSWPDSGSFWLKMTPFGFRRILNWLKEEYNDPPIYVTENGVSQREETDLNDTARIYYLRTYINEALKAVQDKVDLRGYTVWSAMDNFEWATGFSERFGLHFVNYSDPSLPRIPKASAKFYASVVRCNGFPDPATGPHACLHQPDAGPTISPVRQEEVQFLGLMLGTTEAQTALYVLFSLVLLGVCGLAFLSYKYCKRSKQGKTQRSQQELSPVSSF

SMILES	IC50 [1] [nM]	IC50 [2] [nM]	IC50 [3] [nM]	IC50 [4] [nM]	IC50 [5] [nM]	IC50 [6] [nM]
OC[C@@H]1[C@@H](O)[C@H](O)[C@@H](O)CN1CCCCCOCC1C2CC3CC(C2)CC1C3 (some centres undefined)	300	400	1			
OC[C@H]1[C@@H](O)[C@H](O)[C@@H](O)CN1CCCCCOCc1ccc2ccc3cccc4ccc1c2c34	3	15000	1			
OC[C@@H]1[C@@H](O)[C@H](O)[C@@H](O)CN1CCCCCOCc1ccc2ccccc2c1	3	1000	1			
OC[C@@H]1[C@@H](O)[C@H](O)[C@@H](O)CN1CCCCCOCc1ccc(-c2cccc(F)c2)cc1			1			
OC[C@@H]1[C@@H](O)[C@H](O)[C@@H](O)CN1CCCCCOCc1ccc2ccc3cccc4ccc1c2c34	3	500	3			
OC[C@H]1[C@@H](O)[C@H](O)[C@@H](O)CN1CCCCCOCc1ccc(-c2ccccc2)cc1F				> 100000	60000	> 100000
OC[C@H]1[C@@H](O)[C@H](O)[C@@H](O)CN1CCCCCCOCC12CC3CC(CC(C3)C1)C2	250	5000	2.5			
OC[C@H]1[C@@H](O)[C@H](O)[C@@H](O)CN1CCCCCOCc1ccccc1-c1ccccc1				> 100000	25000	95000
OC[C@@H]1[C@@H](O)[C@H](O)[C@@H](O)CN1CCCCCOCc1ccc(-c2ccccc2F)cc1	75					
OC[C@@H]1[C@@H](O)[C@H](O)[C@@H](O)CN1CCCCCOCc1ccc(-c2ccccc2)cc1				2000		250
OC[C@H]1[C@@H](O)[C@H](O)[C@@H](O)CN1CCCCCOCC1CCCCC1	70	60000	6			
COc1ccccc1-c1ccc(COCCCCCN2C[C@H](O)[C@@H](O)[C@H](O)[C@H]2CO)cc1			3			
OC[C@@H]1[C@@H](O)[C@H](O)[C@@H](O)CN1CCCCCOCc1ccc(-c2ccc3c(c2)OCCO3)cc1	40	250	30			
OC[C@@H]1[C@@H](O)[C@H](O)[C@@H](O)CN1CCCCCOCc1cccc(-c2ccccc2)c1				1500	20000	200
C[C@@H](OCCCCCN1C[C@H](O)[C@@H](O)[C@H](O)[C@@H]1CO)c1ccc(-c2ccccc2)cc1				> 100000	45000	> 100000
OC[C@@H]1[C@@H](O)[C@H](O)[C@@H](O)CN1CCCCCOCC1CCCCC1	500	1500	4			
CC(C)CCC[C@@H](C)[C@H]1CC[C@H]2[C@@H]3CC=C4C[C@@H](OCCCCCN5C[C@H](O)[C@@H](O)[C@H](O)[C@@H]5CO)CC[C@]4(C)[C@H]3CC[C@]12C	1000	15000	20			
OC[C@H]1[C@@H](O)[C@H](O)[C@@H](O)CN1CCCCCOCc1ccc(-c2ccccc2)cc1C(F)(F)F				> 100000	125000	> 100000
OC[C@@H]1[C@@H](O)[C@H](O)[C@@H](O)CN1CCCCCOCc1ccc(-c2ccccc2)cc1F			0.08	2500	30000	250
OC[C@H]1[C@@H](O)[C@H](O)[C@@H](O)CN1CCCCCOCC1C2CC3CC(C2)CC1C3 (some centres undefined)	80	10000	2			
